Laboratory results as given in PMC5673888, “Crystal structure of tripartite-type ABC transporter MacB from Acinetobacter baumannii” (Nature Communications, 2017).

Tests used:
[1] = target: T1, MacB (Acinetobacter baumannii, UniProt A0A0D8G707); assay: X-ray crystal structure of complex ([…] Å); settings: co-crystallized with 10 mM ADPβS, 2 mM MgCl2; composite nucleotide-binding sites at NBD dimer interface
T1 construct: full length (664 residues inferred: stop at Leu655 removes C-terminal 10), N-terminal His6 tag, E. coli BL21(DE3), UDM-solubilized homodimer

[2] = target: MacB from Acinetobacter baumannii (Acinetobacter baumannii); assay: crystal structure; MacB in 0.05% UDM, 10 mM ADPβS and 2 mM MgCl2 added; sitting drop vapour diffusion at 25 °C, 1.2–1.3 M sodium citrate, 100 mM Na-HEPES pH 7.2; Se-Met crystal with 2 mM ATP instead of ADPβS; 3.4 Å

Nc1ncnc2c1ncn2[C@@H]1O[C@H](COP(=O)(O)OP(=O)(O)S)[C@@H](O)[C@H]1O (some centres unmarked) [ADPβS] was tested, and the “X-ray crystal structure of complex (3.4 Å)” value [1] was “MacB was crystallized in the presence of adenosine-5′-(β-thio)-diphosphate (ADPβS)”.

Work on “MacB from Acinetobacter baumannii (from UniProt A0A0D8G707 1-664) (natural protein)” yielded a stoichiometry N [2] of 2.
